Reference: US20130039928A1, “COMPOSITIONS AND METHODS FOR REVERSING CORTICOSTEROID RESISTANCE OR TREATING RESPIRATORY INFECTIONS” (priority 2010, published 2013)
Read-outs that look alike come from different tables or passages of the source. One block for each molecule: values may come before it. Peptide text beside a SMILES is read from it. * marks the point of attachment. Cbz = O=C(OCc1ccccc1)*

Assays:
[1] = target: recombinant HDAC2 (rHDAC2) (Homo sapiens, UniProt Q92769); assay: Cell-free enzymatic activity of recombinant HDAC2; type: biochemical
Description: (§1) HDAC activity was measured using a fluorescent derivative of ε-acetyl-lysine from Enzo life sciences (Farmingdale, N.Y.) according to the manufacturer's recommendations. HDAC2 was immunoprecipitated for analysis of enzymatic activity.

HDAC2 [2] = target: T1, HDAC2 (Homo sapiens, UniProt Q92769); assay: Cell-free denitrosylation and activity of HDAC2 (cell lysates, IP-HDAC2); type: biochemical
T1 construct: HDAC2 was immunoprecipitated for analysis of enzymatic activity; endogenous in cells; host or cells: alveolar macrophages from patients with COPD; HDAC2 immunoprecipitated with the Santa Cruz antibody
Description: as §1
(§2) Macrophage cell or lung tissue extracts were prepared by using 100 μL of immunoprecipitation buffer (50 mM Tris-HCl, pH 8.0, 150 mM NaCl, 1.0% Triton X-100, 0.5% NP-40, 0.1% SDS, 0.5% deoxycholate, and complete protease inhibitor cocktail) from Roche (Morristown, N.J.). The lysis mixture was incubated on ice for 15 minutes and microcentrifuged for 10 minutes at 4° C. Extracts were precleared with 20 μL protein A/G sepharose beads (a 50:50 mix) from Thermo scientific (Rockford, Ill.) and 2 μg of normal IgG. After microcentrifugation, 20 μL of protein A/G sepharose conjugated with 5 μg of antibody was used to precipitate HDAC2 (Santa Cruz Biotechnology, Santa Cruz, Calif.) overnight at 4° C. with rotation. The immune complexes were pelleted with gentle centrifugation, washed twice with 1 mL of immunoprecipitation buffer, and divided equally for the final wash for the activity assay and immunoblotting. For the HDAC assay, immunoprecipitates were resuspended in the activity assay buffer (50 mM TrisHCl, pH 8.0; 10% glycerol; 1 mM dithiothreitol; 0.1 mM EDTA, complete protease inhibitor cocktail). For HDAC2-specific western blotting, immune complexes were washed three times with the immunoprecipitation buffer and finally resuspended in Laemmli buffer for the SDS-PAGE.
S-nitrosylated proteins were detected by using the nitrate/nitrite fluorometric assay kit from Cayman chemicals (Ann Arbor, Mich.) according to the manufacturer's instructions. For HDAC2-specific nitrosylation detection, cells were lysed in buffer (50 mM Tris-HCl, pH 8.0, 150 mM NaCl, 1% Nonidet P-40, 0.5% deoxycholic acid, 0.1% SDS). These lysates were then subjected to immunoprecipitation by using an anti-HDAC2 antibody as described above. The immunoprecipitates were washed twice with lysis buffer and twice with PBS. The pellets were resuspended in 500 μL of PBS. After the addition of 100 μM HgCl2 and 100 μM DAN, the samples were incubated in the dark at 25° C. for 30 minutes, and 1 M NaOH was added. The generated fluorescent triazole from the reaction of the DAN with the NO released from the HDAC2 protein was measured by using an excitation wavelength of 375 nm and an emission wavelength of 450 nm. As a negative control, the antibody alone in lysis buffer was immunoprecipitated. The resulting background fluorescence intensity was subtracted for each experiment.

glutathione = assay: Intracellular glutathione levels in COPD macrophages; type: cell-based, human; conditions: COPD alveolar macrophages
IL-8 = assay: Corticosteroid responsiveness: basal and LPS-induced IL-8 secretion by alveolar macrophages; type: cell-based, human
Description: (§3) For inducing corticosteroid resistance, PMs were exposed to cigarette smoke condensate (CSC, 100 μg/ml; Murty Pharmaceuticals, Lexington, Ky.) for 16 h. Exposure to S-nitrosoglutathione (GSNO, 10 μM) was limited to 4 h. […] For assessing corticosteroid responsiveness, macrophages were incubated with dexamethasone (1 μM, Sigma) for 1 h followed by LPS (100 ng/ml, Sigma) for additional 4 h.
For human IL-8 and mouse IL-6 and MCP-1 proteins, Quantikine ELISA kits from R&D systems (Minneapolis, Minn.) were used according to the manufacturer's instructions.

HDAC2 [3] = type: cell-based, human
Description: as §3, §1, §2

Pseudomonas aeruginosa = assay: Clearance of bacteria in vitro by alveolar macrophages (PA); type: cell-based; conditions: COPD alveolar macrophages
Description: Human alveolar macrophages were purified from individual BAL samples by centrifugation and seeded onto 6-well tissue culture plates. After incubation for 2 h, non-adherent cells were removed and the adherent cells were incubated with R, S-sulforaphane (5 μM; LKT Laboratories, Inc., St. Paul, Minn.) and or DMSO in RPMI 1640 culture medium with 10% FBS and 1% penicillin-streptomycin (Invitrogen, Carlsbad, Calif.). After 16-20 h, adherent cells were scraped, suspended in RPMI 1640 culture media and plated onto 96-well tissue culture plates for bacterial phagocytosis and clearance assays. […] For MARCO antibody-depletion, alveolar macrophages were incubated with human anti-MARCO antibody (1 μg/ml; (Hycult, Uden, The Netherlands) for 4 hours prior to bacterial challenge.
Sputum isolates of nontypeable H. influenzae and P. aeruginosa obtained from patients with COPD at the Department of Veterans Affairs, Western New York Healthcare System were used (S. Sethi, N. Evans, B. J. Grant, T. F. Murphy, N Engl J Med 347, 465 (Aug. 15, 2002); C. S. Berenson, M. A. Garlipp, L. J. Grove, J. Maloney, S. Sethi, J Infect Dis 194, 1375 (Nov. 15, 2006); T. F. Murphy et al., Am J Respir Crit Care Med 177, 853 (Apr. 15, 2008); T. F. Murphy, A. L. Brauer, A. T. Schiffmacher, S. Sethi, Am J Respir Crit Care Med 170, 266 (Aug. 1, 2004)). For bacterial growth, H. influenzae was cultured on chocolate agar or grown in brain heart infusion broth supplemented with 20 μg/mlNAD and 10 μg/ml hemin at 35° C. in 5% CO2. P. aeruginosa was cultured on LB agar plates or in LB broth at 37° C. For FITC-labeling of bacteria, heat inactivated PA and NTHI (10^9 CFU/ml) were resuspended in 1 ml of labeling buffer (0.1 M NaHCO3, pH 9.2) and incubated with fluorescein isothiocyanate (FITC) (Sigma) under constant stiffing in the dark at room temperature for 1 h. Finally, bacteria were washed three times with PBS and dialyzed overnight against PBS. FITC-labeled bacteria were resuspended with PBS at a concentration of 10^9/ml.
After treatment, macrophages (10^5 cells) were incubated with bacteria (PA or NTHI) for 4 h. Subsequently, 100 μL of cell free culture medium was aseptically plated and cultured on tryptose blood and or chocolate agar plates at 37° C. The number of bacterial colonies was counted after 24 h.

HDAC2 [4] = assay: Posttranslational modification of HDAC2 in alveolar macrophages (immunoblot, DAN, biotin-switch); type: cell-based, human; conditions: for levels of SNO-HDAC2: GSNO-exposed alveolar macrophages
Description: S-nitrosylation of proteins was analyzed by anti-SNO antibody, biotin switch assay, and or 2,3-diaminonapthalene (DAN) assay. […] Detail methodology is described in supplementary data.
as §2
For HDAC2-specific nitrosylation detection, cells were lysed in buffer (50 mM Tris-HCl, pH 8.0, 150 mM NaCl, 1% Nonidet P-40, 0.5% deoxycholic acid, 0.1% SDS). […] The pellets were resuspended in 500 μL of PBS.
This assay was performed in the dark.
The Image J program was used for densitometry analyses.

NO = NO levels and iNOS expression in alveolar macrophages; type: cell-based, human; conditions: COPD alveolar macrophages, vs vehicle
Description: as §3, §1
(§4) Total RNA was extracted from the cells by lysis and specific binding to a silica membrance (Qiagen RNeasy kit, Qiagen, Valencia, Calif.), and qRT-PCR was performed by using primers and probe sets for human IL-8, NQO1, GCLM, and iNOS (Assay-on-Demand, Applied Biosystems, Foster City, Calif.). A real-time fluorescent PCR system (ABI 7000 Taqman system, Applied Biosystems) was used to perform these assays. β-actin was used as the normalization control.

IL-8 promoter = assay: ChIP of IL-8 promoter (histone acetylation, HDAC2 binding) in alveolar macrophages; type: cell-based, human
Description: as §3
Chromatin immunoprecipitation was performed as described previously (Hogg, J. C. & Timens, W., Annu Rev Pathol (2008)). Briefly, cells were fixed in ˜1% formaldehyde in cell growth media for 10 minutes followed by glycine fixation. Cells were then sonicated in ChIP-lysis buffer containing a protease inhibitor cocktail after incubation on ice for 30 minutes. […] sonication, the samples were spun at maximum speed for 12 minutes in a cold microcentrifuge. The supernatants were then addressed as input samples. A part of the input sample was precleared by using a 50% slurry of protein A/G beads prepared in immunoprecipitation (IP) buffer for 2 hours in the cold, following which the beads were centrifuged out and the supernatant was used for IP. Then the precleared samples were incubated with 2 μg of panacetylated histone H4 antibody (ChIP assay kit; Upstate Biotechnology) or anti-HDAC2 antibody from Santa Cruz Biotechnology. As a control, anti-rabbit IgG antibody was added for 1 hour in the cold. The protein A/G bead slurry was added to each reaction and was rotated overnight. The next day, the beads were washed extensively, and the DNA was reverse crosslinked, eluted in elution buffer, and stored at −80° C. until used for sequencing or PCR validation assays. […] This immunoprecipitated DNA was used for PCR amplification by using the specific gene (IL-8 for humans and MCP-1 for mice) promoter PCR assays. PCR primers were used for the IL-8 promoter (forward: 5′-[…]-3′ and reverse: 5′-[…]-3′) and the MCP-1 promoter (forward: 5′-[…]-3′ and reverse: 5′-[…]-3′).

HDAC2 [5] = type: cell-based, human; conditions: COPD alveolar macrophages
Description: as §3
All immunoblots were performed by using protocols as described previously (Barnes, P. J., N Engl J Med 343, 269-280 (2000)). Rabbit anti-HDAC2 antibody from Santa Cruz Biotechnology (Santa Cruz, Calif.) was used at 1:500 dilutions. Rabbit anti-5-nitroso-cysteine antibody from Alpha diagnostics was used at 1:500 dilutions. Rabbit anti-nitro-tyrosine antibody from Cell Signaling Technology, was used at 1:250 dilution. Rabbit anti-ubiquitin antibody from Santa Cruz Biotechnology (Santa Cruz, Calif.) was used at 1:1000 dilutions. Rabbit anti-GR antibody from Santa Cruz Biotechnology (Santa Cruz, Calif.) was used at a dilution of 1:1000. Rabbit anti-MMP9 antibody from Sigma Aldrich was used at 1:500 dilutions. Rabbit anti-acetyl-lysine antibody from Abcam was used at 1:750 dilutions. Rabbit anti-lamin-B1 from Santa Cruz Biotechnology (Santa Cruz, Calif.) was used at 1:1000 dilutions as a loading control. The Image J program was used for densitometry analyses.
as §4

[6] = cell lysates incubated with GSH
[7] = COPD alveolar macrophages, result in words

T1 sequence (Q92769 whole entry): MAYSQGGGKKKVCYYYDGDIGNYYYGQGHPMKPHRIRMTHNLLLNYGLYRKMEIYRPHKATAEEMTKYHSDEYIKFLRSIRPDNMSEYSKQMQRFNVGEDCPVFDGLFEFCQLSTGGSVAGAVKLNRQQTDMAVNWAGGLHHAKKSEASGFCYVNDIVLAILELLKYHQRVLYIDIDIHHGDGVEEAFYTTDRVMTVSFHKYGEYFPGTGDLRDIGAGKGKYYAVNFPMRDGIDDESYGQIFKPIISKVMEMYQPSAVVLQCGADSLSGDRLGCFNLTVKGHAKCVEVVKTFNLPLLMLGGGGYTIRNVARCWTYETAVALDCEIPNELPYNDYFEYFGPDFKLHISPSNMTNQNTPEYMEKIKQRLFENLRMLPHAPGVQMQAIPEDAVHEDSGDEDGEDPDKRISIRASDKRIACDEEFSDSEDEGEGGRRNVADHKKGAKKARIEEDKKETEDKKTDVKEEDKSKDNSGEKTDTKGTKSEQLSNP
recombinant HDAC2 (rHDAC2), sequence (Q92769 whole entry, species assumed): as the sequence (Q92769 whole entry) above

rHDAC2 enzymatic activity after GSNO treatment ([1]; in the presence of GSH): restored by GSH | S-nitrosylation and enzymatic activity of GSNO-exposed IP-HDAC2 (HDAC2 [2]; after incubation with GSH): reversed by GSH treatment | HDAC2 activity (HDAC2 [2]; [6]): concurrent increase in HDAC2 activity | nitrosylation (DAN assay) (HDAC2 [2]; [6]): denitrosylation by GSH
Structure (SMILES): N[C@@H](CCC(=O)N[C@@H](CS)C(=O)NCC(=O)O)C(=O)O [GSH, glutathione]

Structure (SMILES): CCOC(=O)CNC(=O)[C@H](CS)NC(=O)CC[C@H](N)C(=O)O [GSH-e, GSH-ethyl ester]
intracellular glutathione levels (glutathione): increased intracellular glutathione levels | repressive effect of DEX on basal and LPS-induced IL-8 secretion (IL-8; GSNO exposed COPD alveolar macrophages, GSH-e 1 mM): significantly increased the repressive effect of DEX | HDAC2 enzymatic activity (HDAC2 [3]; treatment after GSNO exposure of alveolar macrophages): significantly elevated HDAC2 enzymatic activity | bacterial clearance (Pseudomonas aeruginosa): failed to improve bacterial clearance | levels of SNO-HDAC2 (HDAC2 [4]): significant reduction in the levels of SNO-HDAC2

S-nitrosylation of IP-HDAC2 (HDAC2 [2]; GSNO exposure): elevated S-nitrosylation | enzymatic activity of IP-HDAC2 (HDAC2 [2]; GSNO exposure): decreased enzymatic activity
Structure (SMILES): N[C@@H](CCC(=O)N[C@@H](CSN=O)C(=O)NCC(=O)O)C(=O)O [GSNO, S-nitrosoglutathione]
DEX resistance (IL-8; GSNO exposure): did not further increase DEX resistance | LPS-induced IL-8 secretion (IL-8; GSNO treatment (10 μM, 4 h)): moderately augmented LPS-induced IL-8 secretion | HDAC2 enzymatic activity (HDAC2 [3]; [7]): decreased HDAC2 enzymatic activity | rHDAC2 enzymatic activity ([1]; with GSNO): significantly inhibited rHDAC2 enzymatic activity

Structure (SMILES): COC(=O)[C@@H](N)CCCNC(=N)N[N+](=O)[O-] [L-NAME, L-nitroarginine methyl ester]
DEX's repressive effect on basal and LPS-induced IL-8 expression (DEX responsiveness) (IL-8; protein and mRNA): failed | HDAC2 enzymatic activity (HDAC2 [3]; [7]): failed to increase HDAC2 enzymatic activity | NO levels (NO): suppressed NO generation | tyrosine nitration of HDAC2 (nitrotyrosine-HDAC2) (HDAC2 [4]; immunopurified HDAC2 from alveolar macrophages, compared with vehicle): significantly decreased levels of nitrotyrosine-HDAC2

Structure (SMILES): CC(C)C[C@@H](C=O)NC(=O)[C@H](CC(C)C)NC(=O)[C@H](CC(C)C)NC(=O)OCc1ccccc1 [MG132] (Cbz-Leu-Leu-Leu-aldehyde)
HDAC2 enzymatic activity (HDAC2 [3]; [7]): no increase in HDAC2 enzymatic activity | HDAC2 binding in the IL-8 promoter (IL-8 promoter; COPD alveolar macrophages): no increase | HDAC2 protein levels (HDAC2 [5]): increase in total HDAC2 protein

Structure (SMILES): CC(=O)N[C@@H](CS)C(=O)O [NAC, N-acetyl cysteine]
intracellular glutathione levels (glutathione): increased intracellular glutathione levels | bacterial clearance (Pseudomonas aeruginosa): failed to improve bacterial clearance | levels of SNO-HDAC2 (HDAC2 [4]): failed to ameliorate SNO-HDAC2 levels

Structure (SMILES): CC(/C=C/C(=O)NO)=C\[C@@H](C)C(=O)c1ccc(N(C)C)cc1 [TSA, trichostatin]
basal and LPS-induced histone acetylation in the IL-8 promoter region (IL-8 promoter; cotreatment with sulforaphane, with and without DEX): ablated sulforaphane repressed basal and LPS-induced histone acetylation
